Patent US20080188469A1, “VACCINATION” (Glaxo Group Limited, priority 2002, published 2008)

Test system: antigen specific cytokine producing cells in splenocytes
Experiment: Imiquimod given with particle-mediated DNA vaccination (pVAC1.ova.cyt) of mice; cytokine producing splenocytes by ELISPOT
Format: in vivo, C57B1/6 mice
Conditions: imiquimod 30 mg/kg, single subcutaneous injection at the immunisation site, immediately following vaccination
Method: To examine whether the timing of imiquimod administration could affect the numbers of antigen specific cytokine producing cells in splenocytes pVAC1.ova.cyt (prepared according to example 1) was administered by particle mediated gene transfer (0.05 μg/cartridge) into the skin of mice.
If given, immediately following vaccination imiquimod (prepared as a suspension in vehicle which comprised 0.3% (w/v) methylcellulose and 0.1% (v/v) Tween in sterile water) was administered by a single subcutaneous injection (0.05 ml/10 g body weight formulated to provide a dose of 30 mg/kg)) at the immunisation site. Plasmid and imiquimod controls were empty vector (pVAC1) and vehicle, respectively.
All mice received pVAC1. ova.cyt or empty vehicle pVAC1 at day 0 and week 4. One group of mice received imiquimod at day 0 only (Im prime), a second group of mice received imiquimod at week 4 only (Im boost) and another group received imiquimod at day 0 and week 4 (Im pr+boost).
At day 12 spl enocytes were collected and IFN-γ and IL-2 producing cells were measured by ELISPOT.

CC(C)Cn1cnc2c(N)nc3ccccc3c21 [Imiquimod, imiquimod]
Magnitude of the cytotoxic T cell response to a nucleic acid vaccine: Increases the Magnitude of the Cytotoxic T Cell Response
